Among the data in PubChem BioAssay (NCI) are TGI and GI50 values, retold here.

Among the test systems are SW-620 colon; UACC-257 melanoma; TK-10 renal; SF-295 CNS; SNB-19 CNS; CAKI-1 renal; RPMI-8226 leukemia; ACHN renal; NCI-H226 lung.
What all share (test): DTP human tumour cell line panel, 48 h

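Exposure lasted 48 hours, with cells grown in 96-well plates and compounds tested at five concentrations. At the GI50, growth is halved. TGI: concentration producing complete growth inhibition.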 Where only a bound is given, the exact number is not on record here.

For `c1ccc2c(c1)SCCCS2`, the TGI in the assay with SW-620 colon, in the assay with UACC-257 melanoma, with TK-10 renal, with SF-295 CNS and with SNB-19 CNS was above 100 µM in each case.

Regarding `OCc1ccc2c(c1)CC1(C2)Cc2cc3c(cc2C1O)CCC3` (configuration not stated), the TGI (in general, the concentration at which net growth stops) in the assay on SW-620 colon is 24 µM; in the assay with CAKI-1 renal, 27 µM; with RPMI-8226 leukemia, 15.8 µM; with UACC-257 melanoma, 12.6 µM; with TK-10 renal it was 67.1 µM; in the assay with SF-295 CNS, 12.4 µM. Also, the TGI with ACHN renal was 41.3 µM; in the assay with NCI-H226 lung, 28.9 µM; in the assay with SNB-19 CNS, above 100 µM.

Turning to `O=c1c2c3c(sc2[nH]c(=S)n1-c1ccccc1)CCCc1ccc([N+](=O)[O-])cc1-3`, the TGI is 25.4 µM with SW-620 colon; above 100 µM in the assay with CAKI-1 renal; 62.7 µM in the assay on RPMI-8226 leukemia; above 100 µM with UACC-257 melanoma; above 100 µM in the assay with TK-10 renal; above 100 µM in the assay on SF-295 CNS. Besides, the TGI in the assay with ACHN renal, in the assay on NCI-H226 lung and with SNB-19 CNS was above 100 µM throughout.

For `C[C@@H]1CC[C@@]2(C)C(C(=O)O)=CCCC2[C@@]1(C)CC(=O)c1ccoc1` (some centres not stated), the TGI in the assay on SW-620 colon, in the assay on CAKI-1 renal, in the assay on RPMI-8226 leukemia, with UACC-257 melanoma, with TK-10 renal and in the assay with SF-295 CNS was above 25 µM throughout. Moreover, the concentration for total growth inhibition (TGI) in the assay on ACHN renal, in the assay with NCI-H226 lung and in the assay with SNB-19 CNS was above 25 µM throughout.

For `CC(C)NC(=O)OCc1c(COC(=O)NC(C)C)n(C)c2c1ccc1sccc12`, the total growth inhibition concentration (TGI) in the assay on SW-620 colon was above 100 µM; in the assay on CAKI-1 renal it was 50.1 µM; in the assay on RPMI-8226 leukemia, above 58.8 µM; in the assay on UACC-257 melanoma it was 39.5 µM; with TK-10 renal it was 75.6 µM; in the assay with SF-295 CNS, above 87.7 µM. Besides, the total growth inhibition concentration (TGI) with ACHN renal was above 63.8 µM; in the assay with NCI-H226 lung, above 30.1 µM; with SNB-19 CNS, above 100 µM.

Regarding `CCCCCCCCCCCCCCCCCCOc1ccccc1CC(=O)NCC[N+]1(C)CCOCC1`, the GI50 (in general, the concentration at which growth is held to half of that of the control) in the assay on SW-620 colon is 3.76 µM; in the assay with CAKI-1 renal, 18.4 µM; in the assay on UACC-257 melanoma it was 18.9 µM; with TK-10 renal, 1.9 µM; in the assay with SF-295 CNS it was 4.99 µM; with ACHN renal it was 16 µM. Also, in the assay on NCI-H226 lung, the GI50 was 4.9 µM. Besides, the TGI in the assay on SW-620 colon was determined as 22.5 µM; in the assay with CAKI-1 renal, 38.3 µM; in the assay on UACC-257 melanoma it was 35.3 µM; with TK-10 renal, 5.9 µM; in the assay on SF-295 CNS, 49.2 µM; in the assay with ACHN renal, 44.6 µM. This compound came in with a TGI with NCI-H226 lung of 89 µM.

`O=C(ON=C1c2ccccc2C(Br)C(Br)c2ccccc21)c1ccccc1` (configuration not stated): the TGI with SW-620 colon was determined as 28.6 µM; in the assay with CAKI-1 renal it was 23.7 µM; in the assay on RPMI-8226 leukemia, 14.7 µM; with UACC-257 melanoma, 41.7 µM; with TK-10 renal it was 31.5 µM; in the assay with SF-295 CNS it was 36.4 µM. The TGI stood at 33 µM with ACHN renal, 34.1 µM in the assay on NCI-H226 lung and 62.1 µM in the assay on SNB-19 CNS.

As to `OCc1cn(Cc2ccccc2)c2ccccc12`, the TGI is above 100 µM in the assay on SW-620 colon; 1.64 µM in the assay with CAKI-1 renal; 12.1 µM in the assay with RPMI-8226 leukemia; above 100 µM in the assay with SF-295 CNS; above 58.2 µM in the assay with ACHN renal; 0.123 µM in the assay with NCI-H226 lung. Also, the TGI with SNB-19 CNS was above 100 µM.

For the compound `CC(=O)Nc1nc(Cl)cc(NCC2(CO)CCC2)n1`, the total growth inhibition concentration (TGI) in the assay on SW-620 colon, with CAKI-1 renal, with RPMI-8226 leukemia, in the assay on UACC-257 melanoma, in the assay with SF-295 CNS and in the assay with ACHN renal was above 100 µM throughout. Moreover, the TGI in the assay with NCI-H226 lung and in the assay with SNB-19 CNS was above 100 µM throughout.

Turning to `c1ccc(-c2c(-c3ccccc3)[n+](Cc3ccc4ccccc4c3)c(-c3ccc(-c4nc5ccccc5s4)cc3)n2Cc2ccc3ccccc3c2)cc1`, the GI50 with SW-620 colon is 0.14 µM; in the assay on CAKI-1 renal, 0.189 µM; in the assay on RPMI-8226 leukemia it was 0.0625 µM; in the assay with ACHN renal it was 0.178 µM; in the assay on SNB-19 CNS, 0.0784 µM. Moreover, the total growth inhibition concentration (TGI) was determined as 0.764 µM in the assay with SW-620 colon; 0.451 µM with CAKI-1 renal; 0.426 µM in the assay with RPMI-8226 leukemia; 0.378 µM with ACHN renal; 1.26 µM in the assay with SNB-19 CNS.

As to `CCOC(=O)/C=C/c1nc(C#N)c(N)o1`, the TGI in the assay on SW-620 colon, in the assay with CAKI-1 renal, with RPMI-8226 leukemia, with UACC-257 melanoma, in the assay on TK-10 renal and in the assay with ACHN renal was above 100 µM in each case. The compound further showed a concentration for total growth inhibition (TGI) with SNB-19 CNS above 100 µM.

Take `Cc1ccc(-c2cc(-c3ccco3)c(C#N)c(=S)[nH]2)cc1`: the concentration for total growth inhibition (TGI) in the assay with SW-620 colon, in the assay on CAKI-1 renal, in the assay with RPMI-8226 leukemia, in the assay with TK-10 renal, with SF-295 CNS and in the assay with ACHN renal was above 100 µM each time. Besides, the TGI with NCI-H226 lung and with SNB-19 CNS was above 100 µM in each case.

Consider `CC(C)C(Br)CCC1=CCC(Br)(Br)C1` (configuration not stated), for which the TGI with SW-620 colon came to 12.2 µM; with CAKI-1 renal, 33.7 µM; in the assay on UACC-257 melanoma, 28.2 µM; in the assay with TK-10 renal, 31.4 µM; with SF-295 CNS, 33.4 µM; with ACHN renal it was 30.6 µM. Besides, the concentration for total growth inhibition (TGI) with NCI-H226 lung is 26.9 µM; with SNB-19 CNS, 32 µM.

With `Nc1ncnc2c1nnn2C1C=CC(CP(=O)(O)O)C1` (configuration not stated), the TGI with SW-620 colon, in the assay with RPMI-8226 leukemia, in the assay on UACC-257 melanoma, in the assay with TK-10 renal, with SF-295 CNS and with ACHN renal was above 100 µM throughout. The concentration for total growth inhibition (TGI) in the assay with NCI-H226 lung and with SNB-19 CNS was above 100 µM throughout.

Take `CCc1c(O)cc(=O)oc1-c1ccc(OC)c(OC)c1`: the TGI in the assay with SW-620 colon, in the assay on CAKI-1 renal, in the assay with UACC-257 melanoma, in the assay on TK-10 renal, in the assay on SF-295 CNS and with ACHN renal was above 100 µM each time. In the assay with SNB-19 CNS, the TGI is above 100 µM.
